Laboratory results: PubChem BioAssay AID330 (DTP/NCI, 2004)
Several values for one entry are separate records, joined by “and”; a condition that tells them apart may be missing. Equal values may be shown once. Inconclusive results and toxic doses are left out.

Tested on: P388 leukemia ip, CD2F1 mice, survival T/C
Assay: NCI In Vivo Anticancer Drug Screen. Data for tumor model P388 Leukemia (intraperitoneal) in CD2F1 (CDF1) mice
Conditions: endpoint: median survival time, higher = longer survival
In short: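 Mice carrying the transplanted tumor received test compound or vehicle. Survival was recorded in each group, and the value is the treated-group measurement divided by that of the vehicle-treated control group.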

[1] = dose: 50.0 mg/kg/injection, schedule: Q01DX005 (ip), vehicle: Klucel (hydroxypropylcellulose) (HPC)
[2] = dose: 100.0 mg/kg/injection, schedule: Q01DX005 (ip), vehicle: Klucel (hydroxypropylcellulose) (HPC)
[3] = dose: 200.0 mg/kg/injection, schedule: Q01DX005 (ip), vehicle: Klucel (hydroxypropylcellulose) (HPC)
[4] = dose: 50.0 mg/kg/injection, schedule: Q01DX005 (ip), vehicle: saline with Tween-80
[5] = dose: 100.0 mg/kg/injection, schedule: Q01DX005 (ip), vehicle: saline with Tween-80
[6] = dose: 200.0 mg/kg/injection, schedule: Q01DX005 (ip), vehicle: saline with Tween-80

SMILES: CC(=O)Nc1c(Cl)cc(Cl)c2c1Cc1cc(Cl)ccc1-2
- T/C [1]: 88 % of control
- T/C [2]: 94 % of control
- T/C [3]: 112 % of control

SMILES: COc1ccc(C2NCc3c(sc4c3CCCC4)-n3cccc32)cc1 (centres undefined)
- T/C [4]: 87 % of control
- T/C [5]: 87 % of control
- T/C [6]: 87 % of control

SMILES: CCOc1ccc(-n2c(=O)c(N=Nc3ccc(C)cc3)c(O)n(-c3ccc(Br)cc3)c2=S)cc1
- T/C (dose: 100.0 mg/kg/injection, schedule: Q04DX002 (ip), vehicle: saline with Tween-80): 96 % of control
- T/C (dose: 200.0 mg/kg/injection, schedule: Q04DX002 (ip), vehicle: saline with Tween-80): 94 % of control
- T/C (dose: 400.0 mg/kg/injection, schedule: Q04DX002 (ip), vehicle: saline with Tween-80): 90 % of control

SMILES: C/C(C/C(C)=N/O)=N/O
- T/C (dose: 50.0 mg/kg/injection, schedule: Q01DX009 (ip), vehicle: saline): 99 % of control
- T/C (dose: 100.0 mg/kg/injection, schedule: Q01DX009 (ip), vehicle: saline): 97 % of control
- T/C (dose: 200.0 mg/kg/injection, schedule: Q01DX009 (ip), vehicle: saline): 91 % of control

SMILES: N=C(N)SCC(=O)Nc1nc(NC(=O)CSC(=N)N)nc(NC(=O)CSC(=N)N)n1
- T/C (dose: 100.0 mg/kg/injection, schedule: Q04DX002 (ip), vehicle: saline): 101 % of control
- T/C (dose: 200.0 mg/kg/injection, schedule: Q04DX002 (ip), vehicle: saline): 99 % of control
- T/C (dose: 400.0 mg/kg/injection, schedule: Q04DX002 (ip), vehicle: saline): 100 % of control

SMILES: [Cl][Pt+2][Cl].[NH-]c1ccc(Cl)cc1[NH-]
- T/C (dose: 6.25 mg/kg/injection, schedule: Q04DX002 (ip), vehicle: saline with Tween-80): 150 % of control
- T/C (dose: 12.5 mg/kg/injection, schedule: Q04DX002 (ip), vehicle: saline with Tween-80): 157 % of control
- T/C (dose: 25.0 mg/kg/injection, schedule: Q04DX002 (ip), vehicle: saline with Tween-80): 168 % of control

SMILES: CCCCCCCCCCCC#N
- T/C (dose: 100.0 mg/kg/injection, schedule: Q04DX003 (ip), vehicle: saline): 108 % of control
- T/C (dose: 200.0 mg/kg/injection, schedule: Q04DX003 (ip), vehicle: saline): 104 % of control
- T/C (dose: 400.0 mg/kg/injection, schedule: Q04DX003 (ip), vehicle: saline): 116 % of control

SMILES: CC(C)(Br)C(C)(C)OO
- T/C (dose: 18.75 mg/kg/injection, schedule: Q04DX003 (ip), vehicle: Klucel (hydroxypropylcellulose) (HPC)): 104 % of control
- T/C (dose: 37.5 mg/kg/injection, schedule: Q04DX003 (ip), vehicle: Klucel (hydroxypropylcellulose) (HPC)): 112 % of control
- T/C (dose: 75.0 mg/kg/injection, schedule: Q04DX003 (ip), vehicle: Klucel (hydroxypropylcellulose) (HPC)): 104 % of control

SMILES: COC(=O)c1c(C(=O)OC)c(-c2cccc(Cl)c2)n2c1CCC2
- T/C (dose: 25.0 mg/kg/injection, schedule: Q01DX005 (ip), vehicle: saline with Tween-80): 98 % of control
- T/C [4]: 100 % of control
- T/C [5]: 100 % of control and 93 % of control
- T/C [6]: 100 % of control

SMILES: O=C(NC(Cc1ccc(Cl)cc1)C(=O)O)c1ccccc1 (centres undefined)
- T/C (dose: 25.0 mg/kg/injection, schedule: Q01DX009 (ip), vehicle: other): 98 % of control
- T/C (dose: 50.0 mg/kg/injection, schedule: Q01DX009 (ip), vehicle: other): 97 % of control
- T/C (dose: 100.0 mg/kg/injection, schedule: Q01DX009 (ip), vehicle: other): 106 % of control

SMILES: O=C(CCCc1ccc(N(CCCl)CCCl)cc1)NCC(O)C(O)C(O)C(O)CO (centres undefined)
- T/C (dose: 15.0 mg/kg/injection, schedule: Q01DX005 (ip), vehicle: saline with Tween-80): 187 % of control
- T/C (dose: 30.0 mg/kg/injection, schedule: Q01DX005 (ip), vehicle: saline with Tween-80): 201 % of control and 206 % of control
- T/C (dose: 60.0 mg/kg/injection, schedule: Q01DX005 (ip), vehicle: saline with Tween-80): 235 % of control and 250 % of control

SMILES: Nc1ncc(NCCCNc2ccc(C(=O)NC(CCC(=O)O)C(=O)O)cc2)c(=O)[nH]1 (centres undefined)
- T/C (dose: 6.25 mg/kg/injection, schedule: Q01DX005 (ip), vehicle: Klucel (hydroxypropylcellulose) (HPC)): 100 % of control and 102 % of control
- T/C (dose: 12.5 mg/kg/injection, schedule: Q01DX005 (ip), vehicle: Klucel (hydroxypropylcellulose) (HPC)): 100 % of control and 102 % of control
- T/C (dose: 25.0 mg/kg/injection, schedule: Q01DX005 (ip), vehicle: Klucel (hydroxypropylcellulose) (HPC)): 99 % of control and 104 % of control
- T/C [1]: 102 % of control and 98 % of control
- T/C [2]: 99 % of control and 103 % of control
- T/C [3]: 100 % of control and 102 % of control

SMILES: ClC(Cl)=Nc1ccccc1
- T/C (dose: 25.0 mg/kg/injection, schedule: Q01DX009 (ip), vehicle: Klucel (hydroxypropylcellulose) (HPC)): 103 % of control
- T/C (dose: 50.0 mg/kg/injection, schedule: Q01DX009 (ip), vehicle: Klucel (hydroxypropylcellulose) (HPC)): 103 % of control
- T/C (dose: 100.0 mg/kg/injection, schedule: Q01DX009 (ip), vehicle: Klucel (hydroxypropylcellulose) (HPC)): 110 % of control
- T/C (dose: 200.0 mg/kg/injection, schedule: Q01DX009 (ip), vehicle: Klucel (hydroxypropylcellulose) (HPC)): 93 % of control
